PubChem BioAssay (NCI)
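A five-concentration, 48-hour dose response in 96-well plates underlies each endpoint, interpolated linearly between surrounding concentrations. GI50 = concentration required for 50% inhibition of growth. At the TGI there is no net growth.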

Experiments:
Test in all cases: NCI tumour cell line growth inhibition, 48 h
KM12 colon = tested on: KM12 colon
M14 melanoma = tested on: M14 melanoma
SK-MEL-5 melanoma = tested on: SK-MEL-5 melanoma
HOP-92 NSCLC = tested on: HOP-92 NSCLC
786-0 renal = tested on: 786-0 renal
HCT-116 colon = tested on: HCT-116 colon
DU-145 prostate = tested on: DU-145 prostate
BT-549 breast = tested on: BT-549 breast
T-47D breast = tested on: T-47D breast
SN12C renal = tested on: SN12C renal
SK-MEL-2 melanoma = tested on: SK-MEL-2 melanoma
A498 renal = tested on: A498 renal
CAKI-1 renal = tested on: CAKI-1 renal
SW-620 colon = tested on: SW-620 colon
LOX IMVI melanoma = tested on: LOX IMVI melanoma
NCI-H23 lung = tested on: NCI-H23 lung
ACHN renal = tested on: ACHN renal
OVCAR-4 ovarian = tested on: OVCAR-4 ovarian
HL-60(TB) leukemia = tested on: HL-60(TB) leukemia
RPMI-8226 leukemia = tested on: RPMI-8226 leukemia
HCC-2998 colon = tested on: HCC-2998 colon
NCI/ADR-RES ovarian = tested on: NCI/ADR-RES ovarian
CCRF-CEM leukemia = tested on: CCRF-CEM leukemia
RXF 393 renal = tested on: RXF 393 renal
SK-OV-3 ovarian = tested on: SK-OV-3 ovarian
OVCAR-5 ovarian = tested on: OVCAR-5 ovarian
SF-295 CNS = tested on: SF-295 CNS
U251 CNS = tested on: U251 CNS
HS 578T breast = tested on: HS 578T breast
MCF7 breast = tested on: MCF7 breast
UACC-62 melanoma = tested on: UACC-62 melanoma
MALME-3M melanoma = tested on: MALME-3M melanoma
HCT-15 colon = tested on: HCT-15 colon
MDA-MB-435 = tested on: MDA-MB-435
SNB-19 CNS = tested on: SNB-19 CNS
UO-31 renal = tested on: UO-31 renal
SNB-75 CNS = tested on: SNB-75 CNS
SF-268 CNS = tested on: SF-268 CNS
PC-3 prostate = tested on: PC-3 prostate
HOP-62 NSCLC = tested on: HOP-62 NSCLC
IGROV1 ovarian = tested on: IGROV1 ovarian
K-562 leukemia = tested on: K-562 leukemia
EKVX NSCLC = tested on: EKVX NSCLC
TK-10 renal = tested on: TK-10 renal
A549 NSCLC = tested on: A549 NSCLC
SK-MEL-28 melanoma = tested on: SK-MEL-28 melanoma
NCI-H522 lung = tested on: NCI-H522 lung
SF-539 CNS = tested on: SF-539 CNS
UACC-257 melanoma = tested on: UACC-257 melanoma
HT29 colon = tested on: HT29 colon
NCI-H226 lung = tested on: NCI-H226 lung
SR leukemia = tested on: SR leukemia
COLO 205 colon = tested on: COLO 205 colon
NCI-H460 lung = tested on: NCI-H460 lung
MDA-MB-231 breast = tested on: MDA-MB-231 breast

SMILES: O=C(CNc1nc(-c2cccc([N+](=O)[O-])c2)cs1)Nc1cccc([N+](=O)[O-])c1
- GI50 (KM12 colon): 1.36 µM
- TGI (KM12 colon): 3.09 µM
- GI50 (M14 melanoma): 1.48 µM
- TGI (M14 melanoma): 3.06 µM
- GI50 (SK-MEL-5 melanoma): 1.79 µM
- TGI (SK-MEL-5 melanoma): 3.24 µM
- GI50 (HOP-92 NSCLC): 1.7 µM
- TGI (HOP-92 NSCLC): 4 µM
- GI50 (786-0 renal): 1.94 µM
- TGI (786-0 renal): 4.88 µM
- GI50 (HCT-116 colon): 1.24 µM
- TGI (HCT-116 colon): 3.18 µM
- GI50 (DU-145 prostate): 2.02 µM
- TGI (DU-145 prostate): 4.79 µM
- GI50 (BT-549 breast): 0.627 µM
- TGI (BT-549 breast): 2.21 µM
- GI50 (T-47D breast): 1.91 µM
- TGI (T-47D breast): 4.87 µM
- GI50 (SN12C renal): 1.74 µM
- TGI (SN12C renal): 5.03 µM
- GI50 (SK-MEL-2 melanoma): 1.79 µM
- TGI (SK-MEL-2 melanoma): 3.31 µM
- GI50 (A498 renal): 1.3 µM
- TGI (A498 renal): 2.58 µM
- GI50 (CAKI-1 renal): 0.715 µM
- TGI (CAKI-1 renal): 2.6 µM
- GI50 (SW-620 colon): 0.372 µM
- TGI (SW-620 colon): 2.01 µM
- GI50 (LOX IMVI melanoma): 0.577 µM
- TGI (LOX IMVI melanoma): 2.04 µM
- GI50 (NCI-H23 lung): 0.404 µM
- TGI (NCI-H23 lung): 1.76 µM
- GI50 (ACHN renal): 1.3 µM
- TGI (ACHN renal): 2.63 µM
- GI50 (OVCAR-4 ovarian): 2.09 µM
- TGI (OVCAR-4 ovarian): 5.07 µM
- GI50 (HL-60(TB) leukemia): 2.08 µM
- TGI (HL-60(TB) leukemia): 7.73 µM
- GI50 (RPMI-8226 leukemia): 1.47 µM
- TGI (RPMI-8226 leukemia): 4.32 µM
- GI50 (HCC-2998 colon): 1.78 µM
- TGI (HCC-2998 colon): 3.48 µM
- GI50 (NCI/ADR-RES ovarian): 1.47 µM
- TGI (NCI/ADR-RES ovarian): 4.59 µM
- GI50 (CCRF-CEM leukemia): 0.446 µM
- TGI (CCRF-CEM leukemia): > 100 µM
- GI50 (RXF 393 renal): 0.522 µM
- TGI (RXF 393 renal): 2.07 µM
- GI50 (SK-OV-3 ovarian): 0.871 µM
- TGI (SK-OV-3 ovarian): 2.41 µM
- GI50 (OVCAR-5 ovarian): 0.542 µM
- TGI (OVCAR-5 ovarian): 2.37 µM
- GI50 (SF-295 CNS): 2.12 µM
- TGI (SF-295 CNS): 5.47 µM
- GI50 (U251 CNS): 1.71 µM
- TGI (U251 CNS): 5 µM
- GI50 (HS 578T breast): 1.6 µM
- TGI (HS 578T breast): 5.28 µM
- GI50 (MCF7 breast): 0.942 µM
- TGI (MCF7 breast): 4.61 µM
- GI50 (UACC-62 melanoma): 0.662 µM
- TGI (UACC-62 melanoma): 2.03 µM
- GI50 (MALME-3M melanoma): 1.58 µM
- TGI (MALME-3M melanoma): 3.18 µM
- GI50 (HCT-15 colon): 0.582 µM
- TGI (HCT-15 colon): 2.81 µM
- GI50 (MDA-MB-435): 1.65 µM
- TGI (MDA-MB-435): 3.07 µM
- GI50 (SNB-19 CNS): 2.22 µM
- TGI (SNB-19 CNS): 6.44 µM
- GI50 (UO-31 renal): 1.29 µM
- TGI (UO-31 renal): 2.67 µM
- GI50 (SNB-75 CNS): 1.07 µM
- TGI (SNB-75 CNS): 2.35 µM
- GI50 (SF-268 CNS): 1.69 µM
- TGI (SF-268 CNS): 3.35 µM
- GI50 (PC-3 prostate): 0.593 µM
- TGI (PC-3 prostate): 2.66 µM
- GI50 (HOP-62 NSCLC): 1.98 µM
- TGI (HOP-62 NSCLC): 4.13 µM
- GI50 (IGROV1 ovarian): 0.333 µM
- TGI (IGROV1 ovarian): 1.33 µM
- GI50 (K-562 leukemia): 1.03 µM
- TGI (K-562 leukemia): > 100 µM
- GI50 (EKVX NSCLC): 2.06 µM
- TGI (EKVX NSCLC): 4.74 µM
- GI50 (TK-10 renal): 1.53 µM
- TGI (TK-10 renal): 5.82 µM
- GI50 (A549 NSCLC): 2.63 µM
- TGI (A549 NSCLC): 9.09 µM
- GI50 (SK-MEL-28 melanoma): 1.49 µM
- TGI (SK-MEL-28 melanoma): 3.08 µM
- GI50 (NCI-H522 lung): 1.33 µM
- TGI (NCI-H522 lung): 2.9 µM
- GI50 (SF-539 CNS): 1.53 µM
- TGI (SF-539 CNS): 3.49 µM
- GI50 (UACC-257 melanoma): 1.95 µM
- TGI (UACC-257 melanoma): 5.08 µM
- GI50 (HT29 colon): 0.744 µM
- TGI (HT29 colon): 2.29 µM
- GI50 (NCI-H226 lung): 1.04 µM
- TGI (NCI-H226 lung): 3.32 µM
- GI50 (SR leukemia): 0.419 µM
- TGI (SR leukemia): > 100 µM
- GI50 (COLO 205 colon): 1.28 µM
- TGI (COLO 205 colon): 2.85 µM
- GI50 (NCI-H460 lung): 1.04 µM
- TGI (NCI-H460 lung): 2.76 µM
- GI50 (MDA-MB-231 breast): 2.11 µM
- TGI (MDA-MB-231 breast): 4.56 µM
